From US9440957B2, “Compounds and compositions for modulating EGFR Activity” (Novartis AG, priority 2012, dated 2016)
Where two headings read alike, the source gives them in different places.

Key:
HCC827 (Del E746-A750) = HCC827 (Del E746-A750) (Homo sapiens, UniProt P00533, DEL746-750); test: EGFR target modulation in HCC827 cell line (phospho-EGFR Y1173 ELISA); format: cell-based
Procedure, shortened: (§1)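 Readout: luminescent pY1173-EGFR sandwich ELISA on cell lysates. Treatment: compound, 3 h, 37 °C.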

HEKn (EGFR WT) = HEKn (EGFR WT) (Homo sapiens, UniProt P00533); test: EGFR target modulation in HEKn (EGFR-WT) cell line (phospho-EGFR Y1173 ELISA); format: cell-based; conditions: value outside parentheses
Procedure, shortened: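 Primary neonatal human keratinocytes (EGFR WT) were exposed to serially diluted compounds for 3 h, then lysed on ice. Phospho-EGFR Y1173 was measured by chemiluminescent sandwich ELISA using anti-EGFR capture.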

EGFR(L858R/T790M) = biological target: T1, EGFR(L858R/T790M) (Homo sapiens, UniProt P00533, L858R/T790M); test: EGFR biochemical assay (HTRF), IC50 determinations
T1 construct: purchased from Carna (GST-a.a. 669-1210)
Procedure, shortened: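 HTRF kinase reaction with biotin-TK peptide at room temperature, quenched with EDTA at 60 min and detected with PT66K/SAXL after 1 h. Without preincubation, enzyme starts the reaction with compound, ATP and peptide present. With preincubation, compound, enzyme and peptide sit at room temperature for a set time before ATP is added.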

[1] = biological target: human EGFR WT (NIH/3T3 cells, EGF-induced) (Homo sapiens, UniProt P00533); test: EGFR target modulation in engineered NIH/3T3 cell lines (phospho-EGFR Y1068 AlphaLISA), EGFR WT; format: cell-based; conditions: engineered NIH/3T3 cells, read-out: NIH3T3 IC50 (μM) EGFR (WT)
Procedure, shortened: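 Read-out is phospho-Y1068 AlphaLISA on cell lysates, with anti-total EGFR at 1 nM final equilibrated 1 h at room temperature. Cells were dosed 3 h with a 12-point 1:3 series starting from a 10 μM stock. Only the WT line received 50 ng/ml EGF for 5 min.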

H3255 (EGFR L858R) = H3255 (EGFR L858R) (Homo sapiens, UniProt P00533, L858R); test: EGFR target modulation in H3255 cell line (phospho-EGFR Y1173 ELISA); format: cell-based
Procedure, shortened: as §1

[2] = EGFR (L858R/T790M) with 90 min pre-incubation, read-out: IC50 (μM) Column B
[3] = EGFR (L858R/T790M) with no pre-incubation, read-out: IC50 (μM) Column A

Chain of HEKn (EGFR WT) (P00533 25-1210): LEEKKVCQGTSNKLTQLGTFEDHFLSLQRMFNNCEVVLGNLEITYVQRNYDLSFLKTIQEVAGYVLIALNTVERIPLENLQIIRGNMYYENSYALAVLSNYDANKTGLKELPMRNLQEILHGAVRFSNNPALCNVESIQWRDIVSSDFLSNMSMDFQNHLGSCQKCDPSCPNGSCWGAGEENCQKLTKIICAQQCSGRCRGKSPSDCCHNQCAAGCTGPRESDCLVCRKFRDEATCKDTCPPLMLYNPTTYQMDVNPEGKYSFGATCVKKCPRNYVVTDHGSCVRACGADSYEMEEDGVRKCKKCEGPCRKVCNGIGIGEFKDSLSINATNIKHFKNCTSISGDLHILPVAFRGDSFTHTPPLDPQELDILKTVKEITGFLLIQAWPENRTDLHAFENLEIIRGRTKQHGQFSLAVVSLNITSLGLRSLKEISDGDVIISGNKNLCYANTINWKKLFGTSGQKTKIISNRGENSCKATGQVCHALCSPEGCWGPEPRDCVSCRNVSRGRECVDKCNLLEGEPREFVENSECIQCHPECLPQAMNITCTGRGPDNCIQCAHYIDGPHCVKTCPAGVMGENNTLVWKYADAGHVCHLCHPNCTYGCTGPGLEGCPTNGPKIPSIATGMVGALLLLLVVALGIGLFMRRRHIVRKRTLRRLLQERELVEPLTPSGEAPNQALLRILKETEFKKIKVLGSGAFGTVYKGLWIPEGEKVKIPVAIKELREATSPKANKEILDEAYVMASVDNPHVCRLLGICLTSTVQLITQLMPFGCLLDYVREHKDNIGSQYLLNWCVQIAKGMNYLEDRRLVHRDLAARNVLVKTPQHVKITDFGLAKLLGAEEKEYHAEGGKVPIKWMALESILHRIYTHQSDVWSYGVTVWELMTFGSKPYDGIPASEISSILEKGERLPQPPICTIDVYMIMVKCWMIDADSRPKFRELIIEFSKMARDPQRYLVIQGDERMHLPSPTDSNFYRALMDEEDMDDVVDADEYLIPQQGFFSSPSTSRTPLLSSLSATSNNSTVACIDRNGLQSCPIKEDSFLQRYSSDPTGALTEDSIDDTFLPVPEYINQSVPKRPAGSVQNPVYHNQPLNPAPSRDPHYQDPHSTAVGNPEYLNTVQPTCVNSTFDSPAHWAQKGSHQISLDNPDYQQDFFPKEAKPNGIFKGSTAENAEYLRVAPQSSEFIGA
Chain of human EGFR WT (NIH/3T3 cells, EGF-induced) (P00533 25-1210): as above
T1 sequence (P00533 669-1210 T790M/L858R): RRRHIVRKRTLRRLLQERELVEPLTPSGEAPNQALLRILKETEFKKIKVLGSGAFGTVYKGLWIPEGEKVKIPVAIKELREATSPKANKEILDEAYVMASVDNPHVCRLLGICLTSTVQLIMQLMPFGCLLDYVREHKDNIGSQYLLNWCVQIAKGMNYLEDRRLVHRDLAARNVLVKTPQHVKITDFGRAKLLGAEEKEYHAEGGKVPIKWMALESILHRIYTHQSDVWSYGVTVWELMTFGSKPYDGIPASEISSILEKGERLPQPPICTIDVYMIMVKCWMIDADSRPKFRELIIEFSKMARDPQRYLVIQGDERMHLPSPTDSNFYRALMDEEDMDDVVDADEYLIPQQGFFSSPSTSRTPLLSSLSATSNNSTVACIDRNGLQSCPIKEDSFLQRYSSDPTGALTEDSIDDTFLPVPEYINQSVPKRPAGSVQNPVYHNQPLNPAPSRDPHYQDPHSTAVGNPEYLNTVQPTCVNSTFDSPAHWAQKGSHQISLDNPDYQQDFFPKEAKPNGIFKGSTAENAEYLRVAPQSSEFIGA
Chain of H3255 (EGFR L858R) (P00533 25-1210 L858R): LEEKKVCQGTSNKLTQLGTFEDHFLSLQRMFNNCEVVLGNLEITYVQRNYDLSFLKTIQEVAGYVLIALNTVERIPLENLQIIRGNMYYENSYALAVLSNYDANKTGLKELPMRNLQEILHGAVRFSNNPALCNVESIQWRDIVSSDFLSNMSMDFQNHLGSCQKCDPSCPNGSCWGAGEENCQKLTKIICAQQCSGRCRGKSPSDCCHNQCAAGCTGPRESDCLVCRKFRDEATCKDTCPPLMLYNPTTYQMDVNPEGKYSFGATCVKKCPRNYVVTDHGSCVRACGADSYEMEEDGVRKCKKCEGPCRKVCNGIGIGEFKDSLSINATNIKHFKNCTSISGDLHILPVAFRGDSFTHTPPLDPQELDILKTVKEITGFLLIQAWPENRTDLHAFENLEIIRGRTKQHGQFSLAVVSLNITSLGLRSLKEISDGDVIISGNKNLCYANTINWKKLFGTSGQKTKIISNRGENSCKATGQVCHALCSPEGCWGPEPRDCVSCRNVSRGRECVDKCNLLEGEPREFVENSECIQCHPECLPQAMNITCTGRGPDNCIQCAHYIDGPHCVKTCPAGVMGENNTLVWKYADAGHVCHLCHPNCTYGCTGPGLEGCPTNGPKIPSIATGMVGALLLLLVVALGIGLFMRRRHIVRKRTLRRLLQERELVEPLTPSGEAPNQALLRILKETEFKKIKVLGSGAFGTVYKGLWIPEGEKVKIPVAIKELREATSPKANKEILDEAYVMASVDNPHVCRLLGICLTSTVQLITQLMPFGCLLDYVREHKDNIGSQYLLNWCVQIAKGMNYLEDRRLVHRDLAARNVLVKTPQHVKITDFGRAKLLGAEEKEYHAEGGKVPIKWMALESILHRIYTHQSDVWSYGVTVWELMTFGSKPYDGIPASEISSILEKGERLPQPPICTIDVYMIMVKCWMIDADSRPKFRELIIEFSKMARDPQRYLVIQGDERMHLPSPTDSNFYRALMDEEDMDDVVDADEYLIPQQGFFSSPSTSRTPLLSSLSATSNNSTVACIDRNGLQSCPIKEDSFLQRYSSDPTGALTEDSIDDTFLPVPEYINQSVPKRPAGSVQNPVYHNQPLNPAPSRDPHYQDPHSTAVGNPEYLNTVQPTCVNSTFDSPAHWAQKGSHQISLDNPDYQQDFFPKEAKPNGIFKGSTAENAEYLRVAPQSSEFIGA

| IC50 (HCC827 (Del E746-A750)) | IC50 (HEKn (EGFR WT)) | IC50 (EGFR(L858R/T790M); [2]) | IC50 (EGFR(L858R/T790M); [3]) | IC50 [1] | IC50 (H3255 (EGFR L858R)) | SMILES |
| --- | --- | --- | --- | --- | --- | --- |
| < 1 nM | 79 nM | < 0.001 µM | 0.002 µM | 0.025 µM | 2 nM | C=CC(=O)N1CCCC[C@@H](n2c(NC(=O)c3ccnc(C)c3)nc3cc(CN4CC[C@H](F)C4)cc(C)c32)C1 [Example 17-147] |
| < 1 nM | 77 nM | < 0.001 µM | 0.002 µM | 0.083 µM | 2 nM | C=CC(=O)N1CCCC[C@@H](n2c(NC(=O)c3ccnc(C)c3)nc3cc(CN4CC[C@@H](F)C4)cc(C)c32)C1 [Example 17-148] |
| < 1 nM | 76 nM | < 0.001 µM | 0.002 µM | 0.015 µM | 2 nM | C=CC(=O)N1CCCC[C@@H](n2c(NC(=O)c3ccnc(C)c3)nc3cc(CN4CC[C@H](OC)C4)cc(C)c32)C1 [Example 17-149] |
| < 1 nM | 129 nM | < 0.001 µM | 0.003 µM | 0.042 µM | 3 nM | C=CC(=O)N1CCCC[C@@H](n2c(NC(=O)c3ccnc(C)c3)nc3cc(CN4CC[C@@H](OC)C4)cc(C)c32)C1 [Example 17-150] |
| < 1 nM | 112 nM | < 0.001 µM | 0.002 µM | 0.032 µM | 2 nM | C=CC(=O)N1CCCC[C@@H](n2c(NC(=O)c3ccnc(C)c3)nc3cc(CN4CC(F)C4)cc(C)c32)C1 [Example 17-152] |
| < 1 nM | 79 nM | < 0.001 µM | 0.002 µM | 0.01 µM | 2 nM | C=CC(=O)N1CCCC[C@@H](n2c(NC(=O)c3ccnc(C)c3)nc3cc(CN4CC(OC)C4)cc(C)c32)C1 [Example 17-154] |
